Reference: patent US9096615B2, “Bridged bicyclic amino thiazine dioxide compounds as inhibitors of beta-secretase and methods of use thereof” (AMGEN INC., priority 2013, dated 2015)
pIC50: −log10 of the molar value. Like-named read-outs stand apart in the source and are kept apart here.

Assays:
[1] = biological target: BACE1 (Homo sapiens, UniProt P56817); test: In vitro enzymatic BACE FRET assay; assay type: biochemical
In short: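 BACE (0.2 nM) pre-incubated 1 h with serially diluted inhibitor in 0.05 M acetate pH 4.2, 10% DMSO, 100 uM genapol; 50 nM FRET peptide substrate added, 1 h incubation. Stopped with Tris to neutral pH; fluorescence read (ex 488, […]).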

[2] = test system: Aβ40 in conditioned medium of cells stably expressing Amyloid Precursor Protein (APP); test: In vitro BACE cell-based assay (HEK cell assay, Aβ40 sandwich ELISA); details: Homo sapiens, HEK293
In short: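 APP-stable cells were cultured 24 h at 37 °C, then given compound as 10-point dose-response (top 100 μM or 10 μM; 0.1% DMSO final) for 24 h. Aβ40 in conditioned medium was measured by sandwich ELISA (pAb40 capture, biotinylated 6E10 detection, Eu time-resolved fluorescence). IC50 from percent inhibition versus concentration.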

[3] = biological target: T1, Cathepsin D (Cat D) (Homo sapiens, UniProt P07339); test: In vitro enzymatic Cathepsin D (Cat D) FRET assay; assay type: biochemical
T1 construct: made in house; host or cells: CHO cells
In short: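 Recombinant human Cat D expressed in CHO cells, 9 nM, pre-incubated 1 h with inhibitor in 0.05 M citrate pH 3.5, 10% DMSO, 5 mM CHAPS. Reaction started with 20 nM FRET peptide substrate, run 1 h, stopped with Tris to neutral pH; fluorescence read at ex 500/em 580 nm.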

[4] = test system: Abeta 40; test: In vivo inhibition of beta-secretase: percent Abeta 40 reduction in CSF and brain; set-up: species or system rat; details: 10 mpk, after 4 hrs
Source text: In Vivo Inhibition of Beta-Secretase
Several animal models, including mouse, rat, dog, and monkey, may be used to screen for inhibition of beta-secretase activity in vivo following administration of a test compound sample. Animals used in this invention can be wild type, transgenic, or gene knockout animals. For example, the Tg2576 mouse model, prepared and conducted as described in Hsiao et al., 1996, Science 274, 99-102, and other non-transgenic or gene knockout animals are useful to analyze in vivo inhibition of Amyloid beta peptide (Abeta) production in the presence of inhibitory test compounds. Generally, 2 to 18 month old Tg2576 mice, gene knockout mice or non-transgenic animals are administered test compounds formulated in vehicles, such as cyclodextran, phosphate buffers, hydroxypropyl methylcellulose or other suitable vehicles. One to twenty-four hours following the administration of compound, animals are sacrificed, and brains as well as cerebrospinal fluid (CSF) and plasma are removed for analysis of A-beta levels and drug or test compound concentrations (Dovey et al., 2001, Journal of Neurochemistry, 76, 173-181) Beginning at time 0, animals are administered by oral gavage, or other means of delivery such as intravenous injection, an inhibitory test compound of up to 100 mg/kg in a standard, conventional formulation, such as 2% hydroxypropyl methylcellulose, 1% Tween80. A separate group of animals receive 2% hydroxypropyl methylcellulose, 1% Tween80 alone, containing no test compound, and serve as a vehicle-control group. At the end of the test period, animals are sacrificed and brain tissues, plasma or cerebrospinal fluid are collected. Brains are either homogenized in 10 volumes (w/v) of 0.2% diethylamine (DEA) in 50 mM NaCl (Best et al., 2005, Journal of Pharmacology and Experimental Therapeutics, 313, 902-908), or in 10 volumes of 0.5% TritonX-100 in Tris-buffered saline (pH at about 7.6). Homogenates are centrifuged at 355,000 g, 4° C. for 30 minutes. CSF or brain supernatants are then analyzed for the presence of A-beta peptide by specific sandwich ELISA assays based on ECL (Electrochemiluminescence) technology. For example, rat Abeta40 is measured using biotinylated-4G8 (Signet) as a capture antibody and Fab40 (an in-house antibody specific to the C-terminal of Abeta40) as a detection antibody. For example, 4 hours after administration of 30 mg/kg oral dose of the test compound in 2% hydroxypropyl methylcellulose, 1% Tween80 (pH2.2) to 200 g male Sprague Dawley rats, amyloid beta peptide levels are measured for reduction by X % and Y % in cerebrospinal fluid and brain, respectively, when compared to the levels measured in the vehicle-treated or control […].
Actual vehicles used: Oral: 2% HPMC, 1% Tween80, pH 2.2
• IV: 5% EtOH, 45% Propylene glycol in 5% Dextrose
The compounds of the invention may be shown to reduce the formation and/or deposition of amyloid beta peptide in the cerebrospinal fluid (CSF) as well as in the brain of a mouse or rat at either 3 mpk, 10 mpk or 30 mpk (mpk=mg compound per kg weight of the animal) dosing concentrations after 4 hrs.

[5] = read-out: BACE1 FRET assay IC50
[6] = Aβ40, 24 h incubation, read-out: HEK cell assay IC50
[7] = Abeta 40, rat CSF, read-out: % reduction of rat CSF levels at 10 pmk
[8] = Abeta 40, rat brain, read-out: % reduction of rat brain levels at 10 mpk
[9] = average IC50, read-out: BACE1 Enzyme assay IC50
[10] = average IC50, read-out: BACE1 cell assay IC50
[11] = average IC50, first procedure, read-out: CatD IC50

BACE1, sequence (P56817 46-501, species assumed): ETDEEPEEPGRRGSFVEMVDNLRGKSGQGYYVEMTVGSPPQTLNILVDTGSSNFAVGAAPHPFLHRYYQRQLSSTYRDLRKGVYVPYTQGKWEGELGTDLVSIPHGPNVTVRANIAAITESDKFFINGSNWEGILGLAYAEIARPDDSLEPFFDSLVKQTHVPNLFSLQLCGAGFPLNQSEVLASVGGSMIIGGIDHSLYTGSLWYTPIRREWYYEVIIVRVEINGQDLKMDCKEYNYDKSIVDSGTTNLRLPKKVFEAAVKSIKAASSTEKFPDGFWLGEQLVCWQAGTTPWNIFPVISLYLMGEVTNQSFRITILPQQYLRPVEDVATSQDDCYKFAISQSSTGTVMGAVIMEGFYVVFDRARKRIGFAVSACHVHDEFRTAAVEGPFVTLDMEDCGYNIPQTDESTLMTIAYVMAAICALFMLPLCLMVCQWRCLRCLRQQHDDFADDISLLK
T1 sequence (P07339 65-412, species assumed): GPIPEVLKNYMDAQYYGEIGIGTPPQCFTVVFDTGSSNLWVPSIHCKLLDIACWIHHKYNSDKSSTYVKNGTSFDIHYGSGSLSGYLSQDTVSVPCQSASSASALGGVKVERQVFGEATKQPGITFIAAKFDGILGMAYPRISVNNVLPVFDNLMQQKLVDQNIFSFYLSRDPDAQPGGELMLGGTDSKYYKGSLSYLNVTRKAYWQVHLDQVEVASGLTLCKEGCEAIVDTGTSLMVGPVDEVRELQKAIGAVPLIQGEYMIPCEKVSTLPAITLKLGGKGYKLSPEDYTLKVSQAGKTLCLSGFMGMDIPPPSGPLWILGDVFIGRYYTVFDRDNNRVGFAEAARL

SMILES | pIC50 [1, 5] | pIC50 [2, 6] | pIC50 ([3]; read-out: CatD IC50) | pIC50 [1, 9] | pIC50 [2, 10] | pIC50 [3, 11] | pIC50 ([3]; read-out: Cat D IC50 value) | inhibition in vivo at 10 mg/kg [4, 7] | inhibition in vivo at 10 mg/kg [4, 8]
CC#Cc1ccc(C(=O)Nc2ccc(F)c([C@@]3(C)N=C(N)[C@@]4(C)CC[C@@H]3S4(=O)=O)c2)nc1 [Example 69, N-(3-((1S,2R,5R)-4-amino-2,5-dimethyl-8,8-dioxido-8-thia-3-azabicyclo[3.2.1]oct-3-en-2-yl)-4-fluorophenyl)-5-(1-propyn-1-yl)-2-pyridinecarboxamide] |  |  |  | 8.70 | 8.52 | < 3.40 |  | 42% | 9%
C[C@]1(c2cc(Nc3ncnc4cc(C(F)(F)F)cnc34)ccc2F)N=C(N)[C@@]2(CF)CC[C@@H]1S2(=O)=O [Example 107, N-(3-((1S,2R,5R)-4-amino-5-(fluoromethyl)-2-methyl-8,8-dioxido-8-thia-3-azabicyclo[3.2.1]oct-3-en-2-yl)-4-fluorophenyl)-7-(trifluoromethyl)pyrido[3,2-d]pyrimidin-4-amine] |  |  |  | 8.00 | 7.74 | 3.73 |  | 53% | 43%
COc1cnc(C(=O)Nc2ccc(F)c([C@@]3(C)N=C(N)[C@@]4(C)CC[C@@H]3S4(=O)=O)c2)c(C)n1 [Example 79, N-(3-((1S,2R,5R)-4-amino-2,5-dimethyl-8,8-dioxido-8-thia-3-azabicyclo[3.2.1]oct-3-en-2-yl)-4-fluorophenyl)-5-methoxy-3-methyl-2-pyrazinecarboxamide] |  |  |  | 8.05 | 8.52 | 2.74 |  | 71% | 62%
Cc1cc(C(F)(F)F)cnc1C(=O)Nc1ccc(F)c([C@@]2(C)N=C(N)[C@@]3(C)CC[C@@H]2S3(=O)=O)c1 [Example 24, N-(3-((1S,2R,5R)-4-Amino-2,5-dimethyl-8,8-dioxido-8-thia-3-azabicyclo[3.2.1]oct-3-en-2-yl)-4-fluorophenyl)-3-methyl-5-(trifluoromethyl)picolinamide] | 8.30 | 9.00 | 3.23 |  |  |  |  | 72% | 62%
C[C@]1(c2cc(NC(=O)c3cnc(C(F)F)cn3)ccc2F)N=C(N)[C@@]2(CF)CC[C@@H]1S2(=O)=O [Example 109, N-(3-((1S,2R,5R)-4-amino-5-(fluoromethyl)-2-methyl-8,8-dioxido-8-thia-3-azabicyclo[3.2.1]oct-3-en-2-yl)-4-fluorophenyl)-5-(difluoromethyl)-2-pyrazinecarboxamide] |  |  |  | 7.77 | 8.15 | 2.98 |  | 70% | 57%
Cc1c(C(=O)Nc2ccc(F)c([C@@]3(C)N=C(N)[C@@]4(C)CC[C@@H]3S4(=O)=O)c2)nc2ccc(Cl)cn12 [Example 25, N-(3-((1S,2R,5R)-4-Amino-2,5-dimethyl-8,8-dioxido-8-thia-3-azabicyclo[3.2.1]oct-3-en-2-yl)-4-fluorophenyl)-6-chloro-3-methylimidazo[1,2-a]pyridine-2-carboxamide] | 7.68 | 8.40 | 3.50 |  |  |  |  |  | 
Cc1c(C(=O)Nc2ccc(F)c([C@@]3(C)N=C(N)[C@]4(C)CC[C@H]3S4(=O)=O)c2)nc2ccc(Cl)cn12 [Example 28, N-(3-((1R,2R,5S)-4-Amino-2,5-dimethyl-8,8-dioxido-8-thia-3-azabicyclo[3.2.1]oct-3-en-2-yl)-4-fluorophenyl)-6-chloro-3-methylimidazo[1,2-a]pyridine-2-carboxamide] | 7.15 | 8.00 | < 3.40 |  |  |  | < 3.40 |  | 
Cc1cc(OC(F)F)cnc1C(=O)Nc1ccc(F)c([C@@]2(C)N=C(N)[C@@]3(C)CC[C@@H]2S3(=O)=O)c1 [Example 23, N-(3-((1S,2R,5R)-4-Amino-2,5-dimethyl-8,8-dioxido-8-thia-3-azabicyclo[3.2.1]oct-3-en-2-yl)-4-fluorophenyl)-5-(difluoromethoxy)-3-methylpicolinamide] | 8.70 | 9.00 | 3.93 |  |  |  |  |  | 

Second part, led by results:

pIC50 [1, 5] | pIC50 [2, 6] | pIC50 ([3]; read-out: CatD IC50) | pIC50 [1, 9] | pIC50 [2, 10] | pIC50 [3, 11] | pIC50 ([3]; read-out: Cat D IC50 value) | SMILES | inhibition in vivo at 10 mg/kg [4, 7] | inhibition in vivo at 10 mg/kg [4, 8]
8.70 | 8.70 | 2.76 |  |  |  |  | Cc1cc(Cl)cnc1C(=O)Nc1ccc(F)c([C@@]2(C)N=C(N)[C@@]3(C)CC[C@@H]2S3(=O)=O)c1 [Example 22, N-(3-((1S,2R,5R)-4-Amino-2,5-dimethyl-8,8-dioxido-8-thia-3-azabicyclo[3.2.1]oct-3-en-2-yl)-4-fluorophenyl)-5-chloro-3-methylpicolinamide] | 76% | 66%
 |  |  | 8.70 | 8.40 | 3.03 |  | C[C@]1(c2cc(NC(=O)c3ncc(Cl)cc3Cl)ccc2F)N=C(N)[C@@]2(CF)CC[C@@H]1S2(=O)=O [Example 105, N-(3-((1S,2R,5R)-4-amino-5-(fluoromethyl)-2-methyl-8,8-dioxido-8-thia-3-azabicyclo[3.2.1]oct-3-en-2-yl)-4-fluorophenyl)-3,5-dichloro-2-pyridinecarboxamide] | 74% | 71%
 |  |  | 8.05 | 8.15 | 3.05 |  | Cc1cc(C(F)F)cnc1C(=O)Nc1ccc(F)c([C@@]2(C)N=C(N)[C@@]3(CF)CC[C@@H]2S3(=O)=O)c1 [Example 103, N-(3-((1S,2R,5R)-4-amino-5-(fluoromethyl)-2-methyl-8,8-dioxido-8-thia-3-azabicyclo[3.2.1]oct-3-en-2-yl)-4-fluorophenyl)-5-(difluoromethyl)-3-methyl-2-pyridinecarboxamide] | 62% | 58%
 |  |  | 8.22 | 8.30 | 3.27 |  | C[C@]1(c2cc(NC(=O)c3ccc(C(F)(F)F)cn3)ccc2F)N=C(N)[C@@]2(CF)CC[C@@H]1S2(=O)=O [Example 110, N-(3-((1S,2R,5R)-4-amino-5-(fluoromethyl)-2-methyl-8,8-dioxido-8-thia-3-azabicyclo[3.2.1]oct-3-en-2-yl)-4-fluorophenyl)-5-(trifluoromethyl)-2-pyridinecarboxamide] | 65% | 54%
5.34 | 5.69 | 2.37 |  |  |  |  | Cc1cc(Cl)cnc1C(=O)Nc1ccc(F)c([C@]2(C)N=C(N)[C@]3(C)CC[C@H]2S3(=O)=O)c1 [Example 34, N-(3-((1R,2S,5S)-4-amino-2,5-dimethyl-8,8-dioxido-8-thia-3-azabicyclo[3.2.1]oct-3-en-2-yl)-4-fluorophenyl)-5-chloro-3-methyl-2-pyridinecarboxamide] |  | 
